# Reference: PubChem BioAssay (NCI)
#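 How tested: cells in 96-well plates exposed to compound for 48 hours at five concentrations. TGI: total growth inhibition.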 Where a SMILES comes first, the peptide text is derived from it. [ ]: non-standard residue; d: D form. The star is where a group is joined. ξ: configuration not given here. NMeF = CN[CH](Cc1ccccc1)C(=O)O; ξNMe2Val = CC(C)C(C(=O)*)N(C)C; NMeV = CN[CH](C(=O)O)C(C)C; ξNMeV = CNC(C(=O)O)C(C)C; Boc = CC(C)(C)OC(=O)*; OBn = c1ccc(CO*)cc1; OtBu = CC(C)(C)O*
# Legend:
# Test in all cases: NCI tumour cell line growth inhibition, 48 h
# A549 NSCLC = test system: A549 NSCLC
# HL-60(TB) leukemia = test system: HL-60(TB) leukemia
# M14 melanoma = test system: M14 melanoma
# NCI-H226 lung = test system: NCI-H226 lung
# NCI-H460 lung = test system: NCI-H460 lung
# OVCAR-8 ovarian = test system: OVCAR-8 ovarian
# RXF 393 renal = test system: RXF 393 renal
# SK-MEL-2 melanoma = test system: SK-MEL-2 melanoma
# KM12 colon = test system: KM12 colon
# NCI/ADR-RES ovarian = test system: NCI/ADR-RES ovarian
SMILES,TGI (A549 NSCLC) [µM],TGI (HL-60(TB) leukemia) [µM],TGI (M14 melanoma) [µM],TGI (NCI-H226 lung) [µM],TGI (NCI-H460 lung) [µM],TGI (OVCAR-8 ovarian) [µM],TGI (RXF 393 renal) [µM],TGI (SK-MEL-2 melanoma) [µM],TGI (KM12 colon) [µM],TGI (NCI/ADR-RES ovarian) [µM]
CC(C)C(C(=O)N(C)[C@H](C(=O)N1CCC[C@H]1C(=O)N(C)[C@@H](Cc1ccccc1)C(=O)OCc1ccccc1)C(C)C)N(C)C(=O)[C@@H](NC(=O)OC(C)(C)C)C(C)C (stereo partly specified) (Boc-V[ξNMeV][NMeV]P[NMeF]-OBn),> 31.6,8.25,> 100,> 100,> 31.6,> 31.6,> 31.6,> 31.6,,
CCCCCCCCCCCC[N+]12CC[N+](C)(CC1)CC2,> 100,40.4,> 100,66.5,26.5,> 100,3.34,> 100,20.7,
COc1ccc(C2=NNC(=O)c3ccccc3N2c2nc(-c3cccs3)nc3cc(OC)c(OC)cc23)cc1,> 100,,20.2,20.6,> 100,> 100,,44.2,> 100,> 100
CCOC(=O)N1CCC2(CC1)C[C@@](C(C)=O)(c1ccccc1)C(C)O2 (stereo partly specified),> 100,> 100,> 100,> 100,> 100,> 100,,> 100,> 100,> 100
COc1cccc(CCNc2c(C#N)c3n(c4ccccc4[n+]3C)c3ncccc23)c1,4.04,,3.08,45.9,3.16,3.87,38.2,43.3,4.53,> 51
CC(=O)OCC1OC(n2c(=S)n(-c3ccccc3)c(=O)c3cc(Br)ccc32)C(OC(C)=O)C1OC(C)=O (stereo unspecified),> 100,,> 100,> 100,> 100,> 100,> 100,> 100,> 100,
COc1cc(S(=O)(=O)Nc2ccc(-c3csc(N4C(=O)CSC4c4ccccc4O)n3)cc2)ccc1Cl (stereo unspecified),> 100,49.8,> 100,> 100,52.8,> 100,,> 100,> 100,> 100
CC(C)(C)OC(=O)N1N=CCC1c1ccccc1 (stereo unspecified),> 100,> 100,> 100,> 100,> 100,> 100,> 100,,> 100,> 100
Cc1ccc(Nc2nc(-c3ccc(-c4ccc([N+](=O)[O-])cc4)o3)cs2)cc1,> 100,> 100,> 100,> 100,> 100,> 100,,> 100,> 100,
CC(=O)Nc1ccc(/C=c2\sc3nnc(-c4cccnc4)n3c2=O)cc1,> 100,42.9,39.2,> 100,30.9,32.1,37.2,46.4,31,
O=c1/c(=C/c2ccccn2)sc2nc3cc4c(cc3n12)OCCO4,> 100,,> 100,> 100,> 100,> 100,> 100,> 100,> 100,> 100
COC(=O)c1c2c(cc3c1CC1(Cc4ccccc4C1)C3)CCC2,> 100,69.5,,> 100,> 100,> 100,52.9,,70.2,96.1
O=C(NC1=C(Cl)C(=O)c2ccccc2C1=O)C(=O)C(C(=O)c1ccc2ccccc2c1)C1OC(=O)c2ccccc21 (stereo unspecified),17.5,7.6,18.2,7.09,12,24.5,12.8,19.1,13.7,
NC(=S)N1N=C2c3ccccc3CCC[C@H]2[C@@H]1c1ccccc1,> 53.7,,10.1,11.1,12.1,17.4,6.68,5.94,18.3,3
CC(C)C(C(=O)N(C)C(Cc1ccccc1)C(=O)N(C)C(C(=O)N(C)C(C(=O)N1CCCC1C(=O)OC(C)(C)C)C(C)C)C(C)C)N(C)C (stereo unspecified) (ξNMe2Val-[NMeF][NMeV][NMeV]P-OtBu; configuration not given here),> 100,94.7,51.2,> 100,> 100,> 100,,,> 100,
COc1ccc(NC(=O)C(=O)Cc2ccc([N+](=O)[O-])c([N+](=O)[O-])c2CC(=O)C(=O)Nc2ccc(OC)cc2OC)c(OC)c1,> 100,> 100,> 100,> 100,> 100,> 100,> 100,,> 100,
CN(C)CCC[N+]1=Nc2cccc3cccc(c23)N1,> 100,47.5,39,> 100,> 100,> 100,,> 100,> 100,
Cc1nn2c(c1C#N)NNc1c-2sc(=N)nnc1=O,> 100,> 100,> 100,,,> 100,> 100,,> 100,
Cc1ccc(NC(=O)C2C3CCC(O3)C2C(=O)O)cc1 (stereo unspecified),> 100,> 60.6,> 76.4,> 100,> 100,> 100,48.6,> 100,> 100,
CCNC(=S)NNC(=O)c1ccccc1Nc1ccccc1C(=O)NNC(=S)NCC,> 100,> 100,> 100,> 100,> 100,> 100,,> 100,> 100,> 100
N#COc1ccc(Oc2ccc(OC#N)cc2)cc1,> 100,> 100,> 100,> 100,> 100,> 100,> 100,> 100,> 100,
C=CCOC(=O)Cn1ccc(=O)[nH]c1=O,> 100,> 100,> 100,> 100,> 100,> 100,,> 100,> 100,> 100
